{"source": "patent US10053454B2", "about": "(Bristol-Myers Squibb Company, priority 2013, dated 2018)", "target": "BRD4 (Homo sapiens, UniProt O60885)", "assay": "Time Resolved Fluorescence Resonance Energy Transfer (TR-FRET) binding assay", "settings": "one of the FRET assays described (BRD4 construct not given)"}
{"molecule": "Cc1noc(C)c1-c1cc(C(N)=O)c2c(c1)c1c(C(=O)N3C[C@@H](C)O[C@@H](C)C3)cc(OC(F)(F)F)cc1n2S(=O)(=O)C1CC1", "note": "[Example 75, 9-(cyclopropylsulfonyl)-3-(3,5-dimethyl-4-isoxazolyl)-5-((cis-2,6-dimethyl-4-morpholinyl)carbonyl)-7-(trifluoromethoxy)-9H-carbazole-1-carboxamide]", "values": [{"measurement": "IC50", "result": "< 0.5", "unit": "µM"}]}
{"molecule": "Cc1noc(C)c1-c1cc(C(N)=O)c2c(c1)c1c(C(=O)N3C[C@@H](C)O[C@@H](C)C3)cc(OC(F)(F)F)cc1n2S(C)(=O)=O", "note": "[Example 76, 3-(3,5-dimethyl-4-isoxazolyl)-5-((cis-2,6-dimethyl-4-morpholinyl)carbonyl)-9-(methylsulfonyl)-7-(trifluoromethoxy)-9H-carbazole-1-carboxamide]", "values": [{"measurement": "IC50", "result": "< 0.05", "unit": "µM"}]}
{"molecule": "Cc1noc(C)c1-c1cc(C(N)=O)c2c(c1)c1cc(S(C)(=O)=O)ccc1n2S(=O)(=O)C1CC1", "note": "[Example 77, 9-(cyclopropylsulfonyl)-3-(3,5-dimethyl-4-isoxazolyl)-6-(methylsulfonyl)-9H-carbazole-1-carboxamide]", "values": [{"measurement": "IC50", "result": "< 0.5", "unit": "µM"}]}
{"molecule": "Cc1noc(C)c1-c1cc(C(N)=O)c2c(c1)c1cc(S(C)(=O)=O)ccc1n2CC1CC1", "note": "[Example 78, 9-(cyclopropylmethyl)-3-(3,5-dimethyl-4-isoxazolyl)-6-(methylsulfonyl)-9H-carbazole-1-carboxamide]", "values": [{"measurement": "IC50", "result": "< 0.05", "unit": "µM"}]}
{"molecule": "Cc1noc(C)c1-c1cc(C(N)=O)c2c(c1)c1ccc(S(C)(=O)=O)cc1n2CC1CC1", "note": "[Example 80, 9-(cyclopropylmethyl)-3-(3,5-dimethylisoxazol-4-yl)-7-(methylsulfonyl)-9H-carbazole-1-carboxamide]", "values": [{"measurement": "IC50", "result": "< 0.05", "unit": "µM"}]}
{"molecule": "Cc1noc(C)c1-c1cc(C(N)=O)c2c(c1)c1c(S(C)(=O)=O)cccc1n2CC1CC1", "note": "[Example 81, 9-(cyclopropylmethyl)-3-(3,5-dimethyl-4-isoxazolyl)-5-(methylsulfonyl)-9H-carbazole-1-carboxamide]", "values": [{"measurement": "IC50", "result": "< 0.05", "unit": "µM"}]}
{"molecule": "Cc1n[nH]c(C)c1-c1cc(C(N)=O)c2c(c1)c1ccc(C(=O)N3C[C@@H](C)O[C@@H](C)C3)cc1n2CC1CC1", "note": "[Example 83, 9-(cyclopropylmethyl)-7-((cis-2,6-dimethyl-4-morpholinyl)carbonyl)-3-(3,5-dimethyl-1H-pyrazol-4-yl)-9H-carbazole-1-carboxamide]", "values": [{"measurement": "IC50", "result": "< 0.5", "unit": "µM"}]}
{"molecule": "Cc1nnn(C)c1-c1cc(C(N)=O)c2c(c1)c1ccc(C(=O)N3C[C@@H](C)O[C@@H](C)C3)cc1n2CC1CC1", "note": "[Example 84, 9-(cyclopropylmethyl)-7-((cis-2,6-dimethyl-4-morpholinyl)carbonyl)-3-(1,4-dimethyl-1H-1,2,3-triazol-5-yl)-9H-carbazole-1-carboxamide]", "values": [{"measurement": "IC50", "result": "< 0.5", "unit": "µM"}]}
{"molecule": "Cc1noc(C)c1-c1cc(-c2nnc[nH]2)c2c(c1)c1ccc(C(=O)N3C[C@@H](C)O[C@@H](C)C3)cc1n2CC1CC1", "note": "[Example 85, 9-(cyclopropylmethyl)-3-(3,5-dimethyl-4-isoxazolyl)-7-((cis-2,6-dimethyl-4-morpholinyl)carbonyl)-1-(1H-1,2,4-triazol-3-yl)-9H-carbazole]", "values": [{"measurement": "IC50", "result": "< 0.5", "unit": "µM"}]}
{"molecule": "Cc1noc(C)c1-c1cc(C(N)=O)c2c(c1)c1cc(C(=O)N3CCOCC3)ccc1n2S(=O)(=O)C1CC1", "note": "[Example 87, 9-(cyclopropylsulfonyl)-3-(3,5-dimethyl-4-isoxazolyl)-6-(4-morpholinylcarbonyl)-9H-carbazole-1-carboxamide]", "values": [{"measurement": "IC50", "result": "< 0.05", "unit": "µM"}]}
{"molecule": "Cc1noc(C)c1-c1cc(C(N)=O)c2c(c1)c1ccc(C(=O)N3C[C@@H](C)O[C@@H](C)C3)cc1n2S(=O)(=O)C1CC1", "note": "[Example 88, 9-(cyclopropylsulfonyl)-3-(3,5-dimethyl-4-isoxazolyl)-7-((cis-2,6-dimethyl-4-morpholinyl)carbonyl)-9H-carbazole-1-carboxamide]", "values": [{"measurement": "IC50", "result": "< 0.05", "unit": "µM"}]}
